These results are taken from PubChem BioAssay AID624447 (The Scripps Research Institute Molecular Screening Center, 2012).

SMILES strings stand for the structures. Activity calls are given as the source filed them.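 Rule for the calls: active = PP2A blockers whose half-maximal inhibitory concentration IC50 falls below 50 µM; inactive = IC50 at or above 50 µM.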

The target of this experiment is Serine/threonine-protein phosphatase 2A catalytic subunit alpha isoform (Bos taurus) (UniProt P67774). The experiment can be described thus: PP2A inhibitor potency, phosphohistone substrate, late-stage follow-up, selectivity assay for PP5 inhibitor project, biochemical, bovine brain PP2A, 32P-phosphohistone, dose response, round 5 (AID 624447). The following applies: purified bovine PP2A, 32P-phosphohistone dephosphorylation, scintillation.
Chain of Serine/threonine-protein phosphatase 2A catalytic subunit alpha isoform (Bos taurus) (P67774 whole entry, looked up, canonical isoform): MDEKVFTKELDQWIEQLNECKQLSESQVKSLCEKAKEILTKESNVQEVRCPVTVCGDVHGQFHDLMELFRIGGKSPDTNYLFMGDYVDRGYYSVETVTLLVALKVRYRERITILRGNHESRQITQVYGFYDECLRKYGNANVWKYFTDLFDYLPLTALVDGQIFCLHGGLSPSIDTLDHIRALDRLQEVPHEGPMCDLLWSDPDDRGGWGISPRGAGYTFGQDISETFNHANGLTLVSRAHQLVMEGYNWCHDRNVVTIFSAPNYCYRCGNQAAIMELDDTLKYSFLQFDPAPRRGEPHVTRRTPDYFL

Regarding `CC(C)Oc1ccccc1-c1n[nH]nc1C(=O)O`, the IC50 entry was “inactive”.
